Experiment [1] deals with T1, ABCD2 WT (Homo sapiens, UniProt Q9UBJ2).
T1 construct: expressed in transfected cells
T1 sequence (Q9UBJ2 1-740): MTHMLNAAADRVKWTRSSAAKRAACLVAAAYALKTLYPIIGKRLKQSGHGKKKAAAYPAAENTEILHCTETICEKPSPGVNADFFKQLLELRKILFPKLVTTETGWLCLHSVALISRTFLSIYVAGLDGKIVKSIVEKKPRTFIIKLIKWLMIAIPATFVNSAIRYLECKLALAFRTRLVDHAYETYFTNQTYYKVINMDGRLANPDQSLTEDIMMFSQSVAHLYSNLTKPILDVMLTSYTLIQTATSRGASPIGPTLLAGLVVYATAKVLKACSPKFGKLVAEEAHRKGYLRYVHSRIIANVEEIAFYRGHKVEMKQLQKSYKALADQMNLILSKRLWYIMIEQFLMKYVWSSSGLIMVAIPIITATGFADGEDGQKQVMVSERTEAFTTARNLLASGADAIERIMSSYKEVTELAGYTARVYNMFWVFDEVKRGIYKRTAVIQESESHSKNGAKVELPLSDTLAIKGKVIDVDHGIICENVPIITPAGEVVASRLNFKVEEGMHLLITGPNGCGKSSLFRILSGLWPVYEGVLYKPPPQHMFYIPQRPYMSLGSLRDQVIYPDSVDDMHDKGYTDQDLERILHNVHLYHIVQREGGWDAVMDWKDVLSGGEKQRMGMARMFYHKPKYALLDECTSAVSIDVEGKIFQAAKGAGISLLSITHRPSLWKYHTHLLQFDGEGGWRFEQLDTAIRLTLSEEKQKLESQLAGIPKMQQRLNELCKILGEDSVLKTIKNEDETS
The experiment in a line: D2 correction dose-response assay: ABCD2 WT HiBit protein expression. The format is cell-based. Conditions: HEK-293/ABCD2 WT cells, 24 hours treatment, HiBit luminescence; class combines EC50 and Mean MaxAct (fold); read-out: ABCD2 WT EC50, Emax. The gist of the method:
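HEK-293 cells stably expressing HiBit-tagged human ABCD2 WT were treated with 11 doses (3-fold dilutions, top final 30 μM, 0.3% DMSO) for 24 h at 37 °C. Expression was measured by HiBit lytic luminescence after 1 h at 25 °C, giving EC50 and Emax.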
A general note: With HiBiT, luminescence reflects the tagged protein that the partner subunit can reach.

For experiment [2], the target named is T2, ABCB4 WT (Homo sapiens, UniProt P21439).
T2 construct: expressed in transfected cells
The experiment in a line: ABCB4 WT assay: HiBit protein expression. Conditions: HEK-293 cells stably expressing HiBit-tagged ABCB4 WT; 24 h treatment; top concentration 30 μM; read-out: ABCB4 WT EC50, Emax. It is filed as cell-based. In a few lines:
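HEK-293 cells stably expressing HiBit-tagged human ABCB4 WT, treated 24 h at 37 °C with 11-dose 3-fold dilutions, top final 30 μM in 0.3% DMSO. HiBit lytic reagent luminescence read after 1 h at 25 °C; Emax and EC50 derived.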

T2 sequence (P21439 whole entry): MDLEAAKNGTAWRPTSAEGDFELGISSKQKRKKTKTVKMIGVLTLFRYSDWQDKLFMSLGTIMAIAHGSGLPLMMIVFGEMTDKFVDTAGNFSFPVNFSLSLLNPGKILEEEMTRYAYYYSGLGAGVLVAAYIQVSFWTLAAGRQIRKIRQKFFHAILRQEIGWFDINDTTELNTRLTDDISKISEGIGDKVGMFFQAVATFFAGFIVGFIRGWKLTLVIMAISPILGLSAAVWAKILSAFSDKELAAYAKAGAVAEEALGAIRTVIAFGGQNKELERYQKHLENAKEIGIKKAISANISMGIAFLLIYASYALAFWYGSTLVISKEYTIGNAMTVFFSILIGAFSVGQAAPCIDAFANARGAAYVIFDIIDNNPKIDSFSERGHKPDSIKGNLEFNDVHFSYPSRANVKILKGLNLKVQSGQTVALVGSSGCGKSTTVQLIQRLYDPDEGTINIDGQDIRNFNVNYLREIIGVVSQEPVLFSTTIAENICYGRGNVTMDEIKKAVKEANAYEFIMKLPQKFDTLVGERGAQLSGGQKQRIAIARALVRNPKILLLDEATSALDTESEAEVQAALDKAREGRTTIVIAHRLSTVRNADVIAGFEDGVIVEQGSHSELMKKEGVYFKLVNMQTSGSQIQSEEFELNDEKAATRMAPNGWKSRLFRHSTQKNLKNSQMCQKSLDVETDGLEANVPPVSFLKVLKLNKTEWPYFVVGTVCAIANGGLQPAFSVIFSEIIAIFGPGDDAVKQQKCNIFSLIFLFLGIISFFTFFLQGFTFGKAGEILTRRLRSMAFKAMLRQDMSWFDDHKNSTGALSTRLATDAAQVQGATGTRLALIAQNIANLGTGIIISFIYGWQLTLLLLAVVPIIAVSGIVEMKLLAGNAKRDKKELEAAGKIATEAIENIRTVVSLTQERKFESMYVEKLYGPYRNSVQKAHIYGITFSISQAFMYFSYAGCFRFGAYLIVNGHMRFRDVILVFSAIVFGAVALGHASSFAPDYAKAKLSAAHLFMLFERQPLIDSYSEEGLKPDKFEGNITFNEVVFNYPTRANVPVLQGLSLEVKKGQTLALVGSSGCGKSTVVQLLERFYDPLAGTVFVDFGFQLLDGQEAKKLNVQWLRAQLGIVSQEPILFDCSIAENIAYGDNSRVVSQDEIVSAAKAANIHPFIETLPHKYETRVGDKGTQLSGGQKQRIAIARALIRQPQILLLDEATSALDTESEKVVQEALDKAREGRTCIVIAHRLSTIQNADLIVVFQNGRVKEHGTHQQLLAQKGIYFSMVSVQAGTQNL

What is called EC50 is the concentration giving half of the maximal effect. Consider `Cc1cc(C)c(Oc2nc(-c3cncc(Cl)c3)ccc2S(=O)(=O)N[C@@H](c2ccccc2)C(F)(F)F)c(C)c1` [Compound I-83], for which the figures for the EC50 in experiment [1] and in experiment [2] were 1 to 10 µM and no less than 25 µM, respectively.
Take `CNS(=O)(=O)c1cnc(-c2cncc(Cl)c2)cc1Oc1c(C)cc(C)cc1C` [Compound I-84]: the EC50 in experiment [1] was 10 to 25 µM; in experiment [2], no less than 25 µM.
On the same counts, the results for `Cc1cc(C)c(Oc2nc(-c3cncc(Cl)c3)ccc2S(=O)(=O)N(C)Cc2ccccc2)c(C)c1` [Compound I-85] are 1 to 10 µM and less than 25 µM.
Take `Cc1cc(C)c(Oc2nc(-c3cncc(Cl)c3)ccc2S(=O)(=O)NCc2ccccn2)c(C)c1` [Compound I-86]: the EC50 in experiment [1] and in experiment [2] was 1 to 10 µM throughout.
In the case of `Cc1cc(C)c(Oc2nc(-c3cncc(Cl)c3)ccc2S(=O)(=O)NCc2cc(C(F)(F)F)ccn2)c(C)c1` [Compound I-87], the EC50 in experiment [1] was greater than 25 µM; in experiment [2] it was 1 to 10 µM.
For `Cc1cc(C)c(Oc2nc(-c3cncc(Cl)c3)ccc2S(=O)(=O)NCc2ccccc2)c(C)c1` [Compound I-88], the EC50 in experiment [1] is 1 to 10 µM; in experiment [2], less than 25 µM.
On the same counts, the results for `CNS(=O)(=O)c1ncc(-c2cncc(Cl)c2)nc1Oc1c(C)cc(C)c(Cl)c1C` [Compound I-89] are 1 to 10 µM and 1 to 10 µM.
With `Cc1cc(C)c(Oc2nc(-c3cncc(Cl)c3)cnc2S(N)(=O)=O)c(C)c1Cl` [Compound I-90], the EC50 in experiment [1] and in experiment [2] was 1 to 10 µM throughout.
In the case of `CNS(=O)(=O)c1ccc(N2CCN(C)C(=O)C2)nc1Oc1c(C)cc(C)cc1C` [Compound I-92], the values for the EC50 in experiment [1] and in experiment [2] were greater than 25 µM and no less than 25 µM, respectively.
For the compound `Cc1cc(C)c(Oc2nc(-c3cncc(Cl)c3)ncc2S(N)(=O)=O)c(C)c1Cl` [Compound I-93], the EC50 is 1 to 10 µM in experiment [1] and no less than 25 µM in experiment [2].
Taken in the same sequence, the figures for `Cc1cc(C)c(Oc2nc(-c3cncc(Cl)c3)ccc2S(=O)(=O)Nc2cnn(C)c2)c(C)c1` [Compound I-94] were 1 to 10 µM and 1 to 10 µM.

Source of the values: patent US20250228835A1, “PYRIDINYLOXYPYRIDINES AND RELATED COMPOUNDS AND THEIR USE IN TREATING MEDICAL CONDITIONS” (Rectify Pharmaceuticals, Inc., priority 2024, published 2025).
